Source: patent US8853246B2 (Dow AgroSciences LLC, priority 2009, dated 2014)
Read-outs that look alike come from different tables or passages of the source.

What was measured:
[1] = system: Green Peach Aphid (Myzus Persicae); assay: Insecticidal test for green peach aphid in foliar spray assay (col. MYZUPE); type: in vivo; settings: for pest or weed control at 200 ppm: Myzus persicae, 72 h, read-out: MYZUPE 200 ppm (Corrected % Control, rating)
Summary of the method: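 Cabbage seedlings with 2-3 true leaves, infested with 20-50 wingless adult and nymph aphids one day earlier, sprayed to runoff at 200 ppm (acetone/methanol stock diluted in 0.025% Tween 20), four pots per treatment. After 3 days at ~25 °C, 40% RH, live aphids counted; corrected % control versus solvent-sprayed plants.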

[2] = system: Sweetpotato Whitefly-Crawler (Bemisia Tabaci); assay: Insecticidal test for sweetpotato whitefly-crawler in foliar spray assay (col. BEMITA); type: in vivo; settings: for pest or weed control at 200 ppm: Bemisia tabaci, read-out: BEMITA 200 ppm (Corrected % Control, rating)
Summary of the method: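 Cotton plants (one 3-5 cm true leaf) infested with whitefly eggs (100-300/plant), held 5-6 days at 82° F, 50% RH until crawlers developed. Sprayed to runoff at 200 ppm (acetone stock diluted in 0.025% Tween 20), four plants per treatment. Live nymphs counted after 8-9 days; % control by Abbott's correction versus solvent check.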

| SMILES | pest or weed control at 200 ppm ([1]; Abbott's correction formula) | pest or weed control at 200 ppm ([2]; Abbott's correction formula) | pest or weed control at 200 ppm ([1]; green peach aphid) | pest or weed control at 200 ppm ([2]; sweetpotato whitefly-crawler) | other results |
| --- | --- | --- | --- | --- | --- |
| CSC(C)CC(=O)Nc1sc(-c2cccnc2)nc1Cl (centres unmarked) [Compound 487] | 80 to 100% | 80 to 100% |  |  | melting point: 120 to 125 °C |
| CCN(C(=O)C1(C)CC1(Cl)Cl)c1sc(-c2cccnc2)nc1Cl (centres unmarked) [Compound 536] | < 80% | < 80% |  |  | melting point: 144 to 146 °C |
| CN(C(=O)CCS(C)(=O)=O)c1sc(-c2ccc(F)nc2)nc1Cl [Compound 470] | 80 to 100% | < 80% |  |  | melting point: 42 to 46 °C |
| CN(C(=O)OC(C)(C)C)c1sc(-c2cncc(F)c2)nc1Br [Compound 318] |  |  | 80 to 100% | < 80% | melting point: 108 to 110 °C |
| CSCC(C)C(=O)Nc1sc(-c2ccc(F)nc2)nc1C (centres unmarked) [Compound 159] |  |  | 80 to 100% | 80 to 100% | melting point: 143 to 146 °C |
| CN(CC[S+](C)[O-])C(=O)N(C)c1cnc(-c2cncc(F)c2)s1 (centres unmarked) [Compound 83] |  |  | 80 to 100% | 80 to 100% | melting point: 95 to 99 °C |
| CCN(C(=O)OC(C)(C)C)c1cnc(-c2cccnc2)s1 [Compound 477] |  |  |  |  | melting point: 65 to 67 °C |
| CSCC(C)(C)C(=O)N(C)c1sc(-c2cccnc2)nc1C [Compound 34] |  |  | 80 to 100% | 80 to 100% | melting point: 83 to 88 °C |
| Cc1nc(-c2cncc(C#N)c2)sc1NC(=O)OC(C)(C)C [Compound 151] |  |  | < 80% | < 80% | melting point: 171 to 174 °C |
| CCCCOC(=O)Nc1sc(-c2cccnc2)nc1C [Compound 377] |  |  | < 80% | 80 to 100% | melting point: 108 to 110 °C |
| CN(C(=O)OCC[S+](C)[O-])c1cnc(-c2cncc(F)c2)s1 (centres unmarked) [Compound 84] |  |  | 80 to 100% |  | melting point: 153 to 155 °C |
| Cc1nc(-c2ccc(F)nc2)sc1NC(=O)C(C)C [Compound 71] |  |  | 80 to 100% |  | melting point: 182 to 186 °C |
| CCN(C(=O)Cc1ccncc1)c1sc(-c2cccnc2)nc1Cl [Compound 562] | 80 to 100% | < 80% |  |  |  |
| CN(C(=O)c1ccns1)c1sc(-c2cccnc2)nc1Cl [Compound 346] |  |  |  |  | MYZUPE 200 ppm (Corrected % Control, rating) ([1]; green peach aphid): B (Less than 80); BEMITA 200 ppm (Corrected % Control, rating) ([2]; sweetpotato whitefly-crawler): A (80-100) |
| CCN(C(=O)Cc1ccc(Cl)cc1)c1sc(-c2cccnc2)nc1Cl [Compound 575] | 80 to 100% | < 80% |  |  |  |
| Cc1nc(-c2cccnc2)sc1NC(=O)OC(C)(C)C [Compound 9, (4-Methyl-2-pyridin-3-yl-thiazol-5-yl)-carbamic acid tert-butyl ester] |  |  | 80 to 100% | 80 to 100% |  |
| CSCC(C)C(=O)N(C(=O)OC(C)(C)C)c1sc(-c2cncc(S(C)(=O)=O)c2)nc1C (centres unmarked) [Compound 157] |  |  | < 80% | < 80% |  |
| CSCC(C)C(=O)N(C)c1sc(-c2cccnc2)nc1Br (centres unmarked) [Compound 505] | 80 to 100% | 80 to 100% |  |  |  |
| Cc1nc(-c2cncc(F)c2)sc1N(C)C(=O)OC(C)(C)C [Compound 165] |  |  | 80 to 100% | 80 to 100% |  |
| CSCC(C)C(=O)N(C)c1sc(-c2cncc(F)c2)nc1C (centres unmarked) [Compound 40] |  |  | 80 to 100% | 80 to 100% |  |
| CCN(C(=O)OC(C)(C)C)c1sc(-c2cccnc2)nc1Br [Compound 452] | 80 to 100% | 80 to 100% |  |  |  |
| CCN(C(=O)CC[S+](C)[O-])c1sc(-c2cncc(F)c2)nc1F (centres unmarked) [Compound 427] | 80 to 100% | 80 to 100% |  |  |  |
| CCN(C(=O)Cc1ccc(C(C)=O)s1)c1sc(-c2cccnc2)nc1Cl [Compound 557] | < 80% | < 80% |  |  |  |
| CCN(C(=O)CC(C)[S+](C)[O-])c1sc(-c2cccnc2)nc1Cl (centres unmarked) [Compound 524] | 80 to 100% | 80 to 100% |  |  |  |
| CCN(C(=O)c1cccnc1)c1sc(-c2cccnc2)nc1Cl [Compound 571] | 80 to 100% | < 80% |  |  |  |
| Cc1nc(-c2cccnc2)sc1NC(=O)CN(C)S(=O)(=O)/C=C/c1ccccc1 [Compound 435] | < 80% | < 80% |  |  |  |
| Cc1nc(-c2cccnc2)sc1N(C)C(=O)[C@@H]1CCCN1C(=O)OC(C)(C)C [Compound 292] |  |  | < 80% | 80 to 100% |  |

| SMILES | pest or weed control at 200 ppm ([1]; Abbott's correction formula) | pest or weed control at 200 ppm ([2]; Abbott's correction formula) | pest or weed control at 200 ppm ([1]; green peach aphid) | pest or weed control at 200 ppm ([2]; sweetpotato whitefly-crawler) | other results |
| --- | --- | --- | --- | --- | --- |
| CSCC(C)C(=O)N(CC1CC1(F)F)c1sc(-c2cccnc2)nc1C (centres unmarked) [Compound 467] | 80 to 100% | < 80% |  |  |  |
| CCCCN1CCCC(C(=O)N(C)c2sc(-c3cncc(F)c3)nc2C)C1 (centres unmarked) [Compound 587] | 80 to 100% | 80 to 100% |  |  |  |
| Cc1nc(-c2cccnc2)sc1N(CCS(C)(=O)=O)C(=O)OC(C)(C)C [Compound 568] | < 80% | < 80% |  |  |  |
| COC(=O)CCC(=O)N(C(=O)C(C)CSC)c1sc(-c2cccnc2)nc1C (centres unmarked) [Compound 189] |  |  | 80 to 100% | 80 to 100% |  |
| CC(C)C(=O)N1CCCC(C(=O)N(C)c2sc(-c3cccnc3)nc2Cl)C1 (centres unmarked) [Compound 411] |  |  | 80 to 100% | 80 to 100% |  |
| C=CC(=O)N(CC)c1sc(-c2cccnc2)nc1Cl [Compound 535] | < 80% | 80 to 100% |  |  |  |
| CSCCC(=O)N(C)c1sc(-c2ccc(F)nc2)nc1Cl [Compound 453, N-[4-chloro-2-(6-fluoro-pyridin-3-yl)-thiazol-5-yl]-N-methyl-3-methylsulfanyl-propionamide] | 80 to 100% | 80 to 100% |  |  |  |
| C=C(CC)C(=O)N(CC)c1sc(-c2cccnc2)nc1Cl [Compound 534] | < 80% | 80 to 100% |  |  |  |
| CCN(C(=O)c1ccccn1)c1sc(-c2cccnc2)nc1Cl [Compound 574] | 80 to 100% | < 80% |  |  |  |
| CC(=O)OC(C)C(=O)Nc1sc(-c2cccnc2)nc1C (centres unmarked) [Compound 334] |  |  | 80 to 100% | < 80% |  |
| CSCC(C)C(=O)N(C)c1sc(-c2cccnc2)nc1C (centres unmarked) [Compound 36] |  |  | 80 to 100% | 80 to 100% |  |
| CSCC(C)C(=O)N(Cc1ccccc1)c1sc(-c2cccnc2)nc1C (centres unmarked) [Compound 221] |  |  | 80 to 100% | < 80% |  |
| CSCC(C)(C)C(=O)Nc1sc(-c2cccnc2)nc1C(F)(F)F [Compound 135] |  |  | 80 to 100% | < 80% |  |
| CSCc1ccc(C(=O)Nc2sc(-c3cccnc3)nc2C)o1 [Compound 408] |  |  | 80 to 100% | 80 to 100% |  |
| CSC(C)CC(=O)N(C)c1sc(-c2cncc(F)c2)nc1C (centres unmarked) [Compound 213] |  |  | 80 to 100% | 80 to 100% |  |
| Cc1nc(-c2cccnc2)sc1N(C)C(=O)C(NC(=O)OC(C)(C)C)C(C)OCc1ccccc1 (centres unmarked) [Compound 293] |  |  | 80 to 100% | < 80% |  |
| Cc1nc(-c2cncc(F)c2)sc1N(C)C(=O)C(C)CS(C)(=O)=NC#N (centres unmarked) [Compound 168] |  |  | 80 to 100% | 80 to 100% |  |
| CN(C(=O)CC[S+](C)[O-])c1sc(-c2ccc(F)nc2)nc1Cl (centres unmarked) [Compound 469] | 80 to 100% | < 80% |  |  |  |
| CSC(C)(C)CC(=O)N(C)c1sc(-c2cccnc2)nc1Cl [Compound 489] | 80 to 100% | 80 to 100% |  |  |  |
| CCN(C(=O)c1cnn(C(C)(C)C)c1C)c1sc(-c2cccnc2)nc1Cl [Compound 578] | 80 to 100% | 80 to 100% |  |  |  |
| CCN(C(=O)OC(C)(C)C)c1sc(-c2cccnc2)nc1Cl [Compound 304, (4-chloro-2-pyridin-3-yl-thiazol-5-yl)-ethyl-carbamic Acid Tert-Butyl Ester] |  |  | 80 to 100% | 80 to 100% |  |
| CC(C[S+](C)[O-])C(=O)N(C)c1sc(-c2cccnc2)nc1C(F)(F)F (centres unmarked) [Compound 89] |  |  | < 80% | 80 to 100% |  |
| C=CCSCC(C)C(=O)N(C)c1sc(-c2cccnc2)nc1C (centres unmarked) [Compound 138] |  |  | 80 to 100% | 80 to 100% |  |
| Cc1nc(-c2cccnc2)sc1NC(=O)OC1(C)CCCCC1 [Compound 198] |  |  | 80 to 100% | 80 to 100% |  |
| CSCC(C)C(=S)Nc1sc(-c2cccnc2)nc1C (centres unmarked) [Compound 180, 2-methyl-N-(4-methyl-2-pyridin-3-yl-thiazol-5-yl)-3-methylsulfanyl-thiopropionamide] |  |  | 80 to 100% | 80 to 100% |  |
| CCS(=O)(=O)N1CCCC(C(=O)N(C)c2sc(-c3cccnc3)nc2Cl)C1 (centres unmarked) [Compound 394] |  |  | 80 to 100% | 80 to 100% |  |
| Cc1nc(-c2cccnc2)sc1N(Cc1ccccc1)C(=O)OC(C)(C)C [Compound 15, Benzyl-(4-methyl-2-pyridin-3-yl-thiazol-5-yl)-carbamic acid tert-butyl ester] |  |  | 80 to 100% | 80 to 100% |  |
